According to ChEMBL document CHEMBL1122657, “Dopaminergic agonists: comparative actions of amine and sulfonium analogues of dopamine” (J Med Chem, 1984):

Legend:
Format in all cases: functional
[1] = Effect (0.3 uM) on K+-evoked release of [3H]acetylcholine from striatal slices of reserpine-alpha MPT treated mice evoked by two successive exposures (S1and S2) at 55 and 90 min after the start of perfusion.
[2] = Effect (1.0 uM) on K+-evoked release of [3H]acetylcholine from striatal slices of reserpine-alpha MPT treated mice evoked by two successive exposures (S1and S2) at 55 and 90 min after the start of perfusion.
[3] = Effect (3.0 uM) on K+-evoked release of [3H]acetylcholine from striatal slices of reserpine-alpha MPT treated mice evoked by two successive exposures (S1and S2) at 55 and 90 min after the start of perfusion.
[4] = Effect (0.0 uM) on K+-evoked release of [3H]acetylcholine from striatal slices of reserpine-alpha MPT treated mice evoked by two successive exposures (S1and S2) at 55 and 90 min after the start of perfusion.
Mus musculus = organism: Mus musculus; experiment: Compound concentration that causes inhibition of [3H]-acetyl choline release by 50% was determined using reserpine-alpha MPT treated mice striatal slices

Structure (SMILES)	IC50 (Mus musculus)	further results
C[S+](C)c1ccc2cc(O)c(O)cc2c1.[Br-]	–	Ratio [1]: 0.85; Ratio [2]: 0.81; Ratio [3]: 0.86; Ratio [4]: 0.98
NC1CCc2cc(O)c(O)cc2C1 (stereo not drawn)	0.01 µM	–
CC(N)Cc1ccc(O)c(O)c1 (stereo not drawn)	10 µM	–
CN(C)CCc1ccc(O)c(O)c1	10 µM	–
NCCc1ccc(O)c(O)c1 [DOPAMINE]	10 µM	–
